Measured values taken from patent publication US20190161480A1, “Chemical Compounds” (GLAXOSMITHKLINE INTELLECTUAL PROPERTY DEVELOPMENT LIMITED, priority 2016, published 2019).
Where two headings read alike, the source gives them in different places.

Assays:
[1] = target: PI3Kγ (Homo sapiens, UniProt P48736); assay: PI3K HTRF assay, PI3K-gamma; format: biochemical; conditions: read-out: pIC50 PI3Kγ (converted); further: 15 µM ATP
Experimental: (§1) The binding of compounds to PI3K-alpha/beta/delta/gamma is determined by homogeneous time resolved fluorescence (HTRF) assays as follows;
(§2) Briefly, solid compound is dissolved in 100% DMSO at a concentration of 2 mM. Dilutions are prepared in 100% DMSO using a 1 in 4 serial step dilution. The dilutions are transferred to black low volume Greiner assay plates ensuring that the DMSO concentration is constant across the plate at 1% (0.1 μL/well).
(§3) PI3K Reaction Buffer (contains 50 mM HEPES pH 7.0 (NaOH), 150 mM NaCl, 10 mM MgCl2, 2.3 mM sodium cholate, […] CHAPS made up in milliQ water). Fresh DTT is added at a final concentration of 1 mM on the day of use.
(§4) Enzyme solutions: 1× PI3K Assay Buffer containing: • 550 pM PI3K-Alpha enzyme (275 pM final assay concentration) • 800 pM PI3K-Beta enzyme (400 pM final assay concentration) • 3 nM PI3K-Delta enzyme (1.5 nM final assay concentration) • 10 nM PI3K-Gamma enzyme (5 nM final assay concentration)
(§5) These concentrations are optimal to achieve a signal:background of between 1.5-4.5. The enzyme solution is added to columns 1-24 (3 μL/well) and plates are incubated for 15 minutes at room temperature.
(§6) Substrate solution: 1× PI3K Assay Buffer containing: • PI3K-Alpha: 500 μM ATP, 20 μM PIP2 and 120 nM biotin-PIP3.
(§7) This is added to all wells and plates are incubated for 1 hour at room temperature.
(§8) Detection solution: PI3K Detection Buffer (contains 50 mM HEPES pH 7.0 (HCl), 150 mM NaCl, 2.3 mM sodium cholate, 10 μM CHAPS, 240 mM potassium fluoride) containing 2 mM DTT (2× final assay concentration), 90 nM GRP-1 PH domain, 300 nM Streptavidin-APC and 24 nM Europium-anti-GST (6× final assay concentrations).
(§9) This is mixed left at room temperature (protected from light).
(§10) STOP solution: PI3K STOP Buffer (contains 50 mM HEPES pH 7.0 (HCl), 150 mM NaCl, 2.3 mM sodium cholate, 10 μM CHAPS, 150 mM EDTA).
(§11) Detection solution is diluted 1:1 with STOP solution and added to all wells (3 μL/well). Plates are covered and incubated on the bench for 45-60 minutes.
(§12) Plates are read on a PerkinElmer Envision, measuring TR-FRET between the complex formed between the GST-tagged PH domain and biotinylated PIP3 which both recruit fluorophores (Europium-labelled anti-GST & Strep-APC respectively). In the […] of an inhibitor, this complex is disrupted by the competitive action of non-biotinylated PIP3 (formed in the assay by the phosphorylation of PIP2 by the kinase & ATP). From this, the ratio of acceptor/donor was calculated (λex=317 nm, Δem donor=615 nm, Δem acceptor=665 nm) and used for data analysis.

[2] = target: PI3Kβ (Homo sapiens, UniProt P42338); assay: PI3K HTRF assay, PI3K-beta; format: biochemical; conditions: read-out: pIC50 PI3Kβ (converted); further: 400 µM ATP
Sequence of PI3Kβ (P42338 whole entry, species assumed): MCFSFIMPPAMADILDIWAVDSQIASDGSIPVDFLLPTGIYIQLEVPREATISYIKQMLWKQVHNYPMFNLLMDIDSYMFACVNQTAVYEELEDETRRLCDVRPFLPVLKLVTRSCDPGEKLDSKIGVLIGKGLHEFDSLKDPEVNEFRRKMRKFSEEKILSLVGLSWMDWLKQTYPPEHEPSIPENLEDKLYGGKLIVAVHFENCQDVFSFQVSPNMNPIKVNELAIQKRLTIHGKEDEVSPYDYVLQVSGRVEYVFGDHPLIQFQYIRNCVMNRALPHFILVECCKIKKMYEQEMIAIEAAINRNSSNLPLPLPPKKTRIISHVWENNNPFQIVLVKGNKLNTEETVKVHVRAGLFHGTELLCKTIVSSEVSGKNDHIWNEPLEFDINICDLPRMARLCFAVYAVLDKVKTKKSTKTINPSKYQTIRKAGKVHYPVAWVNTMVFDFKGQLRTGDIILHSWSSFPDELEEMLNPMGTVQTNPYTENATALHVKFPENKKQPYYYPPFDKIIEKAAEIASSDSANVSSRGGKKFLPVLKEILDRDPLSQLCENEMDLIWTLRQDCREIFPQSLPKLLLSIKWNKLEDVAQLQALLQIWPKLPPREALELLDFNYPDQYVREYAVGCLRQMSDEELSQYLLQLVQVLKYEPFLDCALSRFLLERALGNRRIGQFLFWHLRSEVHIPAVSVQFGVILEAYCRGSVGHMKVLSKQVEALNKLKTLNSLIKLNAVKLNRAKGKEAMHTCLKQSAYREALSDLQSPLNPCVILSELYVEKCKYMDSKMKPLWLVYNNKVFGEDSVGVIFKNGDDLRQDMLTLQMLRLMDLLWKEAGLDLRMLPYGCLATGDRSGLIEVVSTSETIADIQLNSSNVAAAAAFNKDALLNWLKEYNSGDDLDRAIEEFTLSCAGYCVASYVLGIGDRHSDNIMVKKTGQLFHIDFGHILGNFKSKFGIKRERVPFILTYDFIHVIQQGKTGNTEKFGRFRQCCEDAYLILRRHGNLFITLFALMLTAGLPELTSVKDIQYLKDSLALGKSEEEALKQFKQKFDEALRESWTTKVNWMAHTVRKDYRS
Sequence of PI3Kβ (P27986 whole entry partner, species assumed): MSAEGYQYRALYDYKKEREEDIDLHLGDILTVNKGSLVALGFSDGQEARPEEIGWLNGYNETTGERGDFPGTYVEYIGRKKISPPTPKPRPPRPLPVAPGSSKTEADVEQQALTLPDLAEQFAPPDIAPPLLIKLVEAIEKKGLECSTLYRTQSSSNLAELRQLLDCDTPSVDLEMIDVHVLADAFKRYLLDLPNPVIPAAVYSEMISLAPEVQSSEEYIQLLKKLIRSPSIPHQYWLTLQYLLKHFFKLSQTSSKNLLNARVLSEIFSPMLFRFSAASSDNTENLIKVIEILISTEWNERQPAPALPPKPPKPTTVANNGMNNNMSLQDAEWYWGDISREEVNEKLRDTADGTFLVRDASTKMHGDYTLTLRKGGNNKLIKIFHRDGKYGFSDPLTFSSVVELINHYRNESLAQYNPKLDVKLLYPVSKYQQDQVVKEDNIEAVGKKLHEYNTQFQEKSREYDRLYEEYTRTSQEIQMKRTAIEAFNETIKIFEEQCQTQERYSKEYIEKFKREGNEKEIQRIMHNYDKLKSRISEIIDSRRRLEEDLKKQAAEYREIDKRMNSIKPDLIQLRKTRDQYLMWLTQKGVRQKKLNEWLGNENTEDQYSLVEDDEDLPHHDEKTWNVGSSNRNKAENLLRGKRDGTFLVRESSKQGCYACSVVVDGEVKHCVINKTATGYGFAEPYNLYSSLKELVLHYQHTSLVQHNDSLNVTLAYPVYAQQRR
Experimental: as §1, §2, §3, §4, §5, §6, §7, §8, §9, §10, §11, §12

[3] = target: T1, PI3Kδ (Homo sapiens, UniProt O00329); assay: PI3Kδ jump dilution experiment; format: biochemical; conditions: 15 min incubation, 100-fold dilution, read for 30 minutes
T1 sequence (O00329 whole entry): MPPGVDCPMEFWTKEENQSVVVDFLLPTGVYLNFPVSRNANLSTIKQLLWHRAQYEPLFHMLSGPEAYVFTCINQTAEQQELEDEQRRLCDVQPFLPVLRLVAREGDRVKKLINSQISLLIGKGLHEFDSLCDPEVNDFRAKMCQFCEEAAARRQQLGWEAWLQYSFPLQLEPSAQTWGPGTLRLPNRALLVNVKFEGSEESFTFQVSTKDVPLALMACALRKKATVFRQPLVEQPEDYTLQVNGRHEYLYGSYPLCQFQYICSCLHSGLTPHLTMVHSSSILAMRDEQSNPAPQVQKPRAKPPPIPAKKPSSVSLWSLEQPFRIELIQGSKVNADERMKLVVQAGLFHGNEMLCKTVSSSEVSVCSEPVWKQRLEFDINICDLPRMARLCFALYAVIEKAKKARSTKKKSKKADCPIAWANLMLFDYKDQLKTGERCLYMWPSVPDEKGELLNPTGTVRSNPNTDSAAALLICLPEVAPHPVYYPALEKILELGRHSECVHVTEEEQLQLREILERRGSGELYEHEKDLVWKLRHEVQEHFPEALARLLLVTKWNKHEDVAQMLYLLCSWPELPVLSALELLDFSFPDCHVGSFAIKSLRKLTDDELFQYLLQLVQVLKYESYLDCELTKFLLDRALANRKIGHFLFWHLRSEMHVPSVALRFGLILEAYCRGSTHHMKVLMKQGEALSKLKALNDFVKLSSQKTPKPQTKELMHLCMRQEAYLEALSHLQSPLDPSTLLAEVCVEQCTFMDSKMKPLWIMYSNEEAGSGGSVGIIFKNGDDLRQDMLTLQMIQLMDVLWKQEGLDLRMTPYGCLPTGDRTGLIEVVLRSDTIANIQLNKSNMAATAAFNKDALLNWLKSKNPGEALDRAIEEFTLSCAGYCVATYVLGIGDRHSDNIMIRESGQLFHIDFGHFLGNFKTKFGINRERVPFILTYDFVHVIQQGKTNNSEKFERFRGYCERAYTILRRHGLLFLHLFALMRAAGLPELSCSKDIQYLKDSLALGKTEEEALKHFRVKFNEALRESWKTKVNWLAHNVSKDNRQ
T1 sequence (P27986 whole entry partner): as the sequence (P27986 whole entry partner, species assumed) above
Experimental: Irreversibility of the PI3Kδ-Inhibitor complex, and reversibility of the non-covalent controls, was determined by jump-dilution assay as follows:
PI3Kδ enzyme was made up to a 100× assay concentration (final assay concentration=6 nM) in buffer solution (contains 50 mM HEPES pH 7.0 (NaOH), 150 mM NaCl, 10 mM MgCl2, 2.3 mM sodium cholate, 10 μM CHAPS made up in milliQ water).
100× enzyme solution was added to compound wells (20 μL/well), and incubated for 15 mins, after which point the assay was diluted 100-fold with commercially available ADP QUEST substrate solution, available from DiscoverX (calatog number: 90-0071), (3200 μL DiscoverX Reagent A, 6400 μL DiscoverX Reagent B, 1 mM ATP and 40 μM PIP2). Production of fluorescence signal was then measured immediately using a Tecan Safire II plate reader at 30 second intervals for 30 minutes (λex=544 nm, λem=590 nm).

[4] = target: T1, PI3Kδ; assay: PI3K HTRF assay, PI3K-delta; format: biochemical; conditions: read-out: pIC50 PI3Kδ (converted); further: 80 µM ATP
Experimental: as §1, §2, §3, §4, §5, §6, §7, §8, §9, §10, §11, §12

[5] = target: PI3Kα (Homo sapiens, UniProt P42336); assay: PI3K HTRF assay, PI3K-alpha; format: biochemical; conditions: read-out: pIC50 PI3Kα (converted); further: 250 µM ATP
Sequence of PI3Kα (P42336 whole entry, species assumed): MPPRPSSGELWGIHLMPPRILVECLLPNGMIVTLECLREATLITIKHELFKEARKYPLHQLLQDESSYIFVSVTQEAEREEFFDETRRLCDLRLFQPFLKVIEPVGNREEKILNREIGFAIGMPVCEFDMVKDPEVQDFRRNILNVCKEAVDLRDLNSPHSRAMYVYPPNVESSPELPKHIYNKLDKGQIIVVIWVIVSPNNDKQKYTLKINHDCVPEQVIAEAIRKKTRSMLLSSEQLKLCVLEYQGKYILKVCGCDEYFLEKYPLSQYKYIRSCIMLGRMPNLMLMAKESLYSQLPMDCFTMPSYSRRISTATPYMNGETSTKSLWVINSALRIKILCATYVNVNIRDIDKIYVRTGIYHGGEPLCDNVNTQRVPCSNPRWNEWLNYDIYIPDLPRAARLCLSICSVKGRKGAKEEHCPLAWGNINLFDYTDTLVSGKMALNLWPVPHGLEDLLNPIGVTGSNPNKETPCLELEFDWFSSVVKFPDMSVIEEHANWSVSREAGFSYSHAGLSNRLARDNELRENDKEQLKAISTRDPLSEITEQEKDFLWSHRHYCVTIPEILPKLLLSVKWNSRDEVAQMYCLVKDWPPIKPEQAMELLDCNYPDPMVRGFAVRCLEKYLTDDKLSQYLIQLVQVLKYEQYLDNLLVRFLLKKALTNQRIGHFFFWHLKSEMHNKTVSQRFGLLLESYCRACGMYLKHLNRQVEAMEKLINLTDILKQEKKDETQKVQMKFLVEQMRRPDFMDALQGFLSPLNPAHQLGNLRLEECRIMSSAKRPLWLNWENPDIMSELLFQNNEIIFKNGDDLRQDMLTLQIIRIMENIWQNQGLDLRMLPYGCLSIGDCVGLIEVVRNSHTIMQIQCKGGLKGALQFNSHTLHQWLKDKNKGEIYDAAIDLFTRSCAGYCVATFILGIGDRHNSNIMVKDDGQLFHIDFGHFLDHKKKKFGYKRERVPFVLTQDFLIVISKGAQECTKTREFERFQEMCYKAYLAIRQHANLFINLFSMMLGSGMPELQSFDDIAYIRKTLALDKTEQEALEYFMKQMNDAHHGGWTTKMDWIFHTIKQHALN
Sequence of PI3Kα (P27986 whole entry partner, species assumed): as the sequence (P27986 whole entry partner, species assumed) above
Experimental: as §1, §2, §3, §4, §5, §6, §7, §8, §9, §10, §11, §12

[6] = target: T1, PI3Kδ; assay: Protein mass spectrometry: covalent adduct assessment and competition experiment; format: binding; conditions: 10:1 inhibitor:protein, incubated overnight
Experimental: Compounds were incubated with 1 μM protein in a 10:1 inhibitor:protein ratio in buffer containing 50 mM HEPES, pH 7.0 (NaOH), 150 mM NaCl, 10 mM MgCl2, 2.3 mM cholate, 10 μM CHAPS. After the desired time, the assays were quenched with a 10% formic acid solution, and analysed by LCMS using an Agilent 6224 TOF LC/MS equipped with Agilent 1200 Series autosampler. Analytes were separated on a Polymer Labs (Agilent) PLRP-S column (50 mm×1 mm internal diameter, 5 μm particle size). LC conditions were 0.5 mL·min^−1 flow rate, 70° C., 10 μL injection volume. Gradient elution with (A) water containing 0.2% (v/v) formic acid and (B) acetonitrile containing 0.2% (v/v) formic acid. Gradient conditions were initially 10% B, increasing to 30% after 0.5 min, and then linearly to 80% B over 4.5 min, prior to a 1.2 min flush with 100% B and then a 1.9 minute equilibration with 10% B prior to the next injection. Mass spectra were then deconvoluted using Agilent MassHunter Qualitative Analysis version B.06.00 over the mass range 70-170 kDa to obtain the intact protein mass.
A potent reversible ATP competitive inhibitor was incubated with 1 μM protein in a 10:1 inhibitor:protein ratio in buffer containing 50 mM HEPES, pH 7.0 (NaOH), 150 mM NaCl, 10 mM MgCl2, 2.3 mM cholate, 10 μM CHAPS at room temperature. […] The assay was quenched at 5 min and analysed using the procedure detailed above.

[7] = test system: amphetamine-induced psychosis; conditions: Law et al. 2012; cited from earlier work
[8] = target: CK2 protein kinase; conditions: literature; cited from earlier work
[9] = test system: Class I PI3-kinases; conditions: read-out: IC50 against each of the Class I PI3-kinases, cited from earlier work

Sequence of PI3Kγ (P48736 whole entry, species assumed): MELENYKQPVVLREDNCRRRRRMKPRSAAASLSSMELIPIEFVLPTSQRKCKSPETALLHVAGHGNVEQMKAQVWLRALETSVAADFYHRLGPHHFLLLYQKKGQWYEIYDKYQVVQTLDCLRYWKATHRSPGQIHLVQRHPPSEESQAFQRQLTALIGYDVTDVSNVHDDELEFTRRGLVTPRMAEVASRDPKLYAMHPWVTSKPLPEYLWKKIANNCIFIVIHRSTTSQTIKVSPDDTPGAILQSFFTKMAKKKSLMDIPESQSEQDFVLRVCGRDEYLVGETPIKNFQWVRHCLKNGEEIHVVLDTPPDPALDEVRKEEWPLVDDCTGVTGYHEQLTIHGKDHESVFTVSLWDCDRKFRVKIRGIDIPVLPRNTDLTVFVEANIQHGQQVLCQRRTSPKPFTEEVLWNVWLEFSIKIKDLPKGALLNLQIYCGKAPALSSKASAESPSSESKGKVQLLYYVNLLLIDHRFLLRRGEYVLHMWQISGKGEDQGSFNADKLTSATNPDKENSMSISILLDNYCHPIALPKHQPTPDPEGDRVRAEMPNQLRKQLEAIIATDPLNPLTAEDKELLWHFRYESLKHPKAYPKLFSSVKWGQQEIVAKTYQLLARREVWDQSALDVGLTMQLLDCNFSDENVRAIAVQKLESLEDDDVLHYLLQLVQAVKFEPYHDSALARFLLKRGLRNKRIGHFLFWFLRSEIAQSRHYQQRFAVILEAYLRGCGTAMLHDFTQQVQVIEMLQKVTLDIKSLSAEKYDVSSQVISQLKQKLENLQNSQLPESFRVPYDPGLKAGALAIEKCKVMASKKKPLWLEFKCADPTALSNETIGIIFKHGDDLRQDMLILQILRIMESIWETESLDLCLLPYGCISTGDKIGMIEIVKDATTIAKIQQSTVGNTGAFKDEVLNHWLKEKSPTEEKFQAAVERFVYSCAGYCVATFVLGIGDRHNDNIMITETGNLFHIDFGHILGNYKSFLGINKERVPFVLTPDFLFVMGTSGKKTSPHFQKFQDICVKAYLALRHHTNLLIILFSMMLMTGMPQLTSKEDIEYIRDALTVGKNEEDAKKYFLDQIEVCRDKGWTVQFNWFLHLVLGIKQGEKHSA

Structure (SMILES) | IC50 [1] | IC50 [2] | Recovery of enzyme activity after jump dilution [3] | IC50 [4] | IC50 [5] | Covalent modification of PI3Kδ (protein mass spectrometry) [6] | Efficacy in mouse model of amphetamine-induced psychosis [7] | IC50 [8] | IC50 ([9]; Fruman et al. 1998) | IC50 ([9]; literature)
COC(=O)c1cc(-c2cc(-c3ncc(CN4CCN(C(C)C)CC4)o3)c3cn[nH]c3c2)cnc1OC.O=CO [Example 1, Methyl 5-(4-(5-((4-isopropylpiperazin-1-yl)methyl)oxazol-2-yl)-1H-indazol-6-yl)-2-methoxynicotinate] | > 31.6 µM | > 31.6 µM | Recovery of enzyme activity was observed | 0.0398 µM | 10 µM | – | – | – | – | –
COc1ncc(-c2cc(-c3ncc(CN4CCN(C(C)C)CC4)o3)c3cn[nH]c3c2)cc1C(=O)O [Example 2, 5-(4-(5-((4-Isopropylpiperazin-1-yl)methyl)oxazol-2-yl)-1H-indazol-6-yl)-2-methoxynicotinic acid] | 15.8 µM | 20 µM | Recovery of enzyme activity was observed | 0.0126 µM | 12.6 µM | no modification | – | – | – | –
COc1ncc(-c2cc(-c3ncc(CN4CCN(C(C)C)CC4)o3)c3cn[nH]c3c2)cc1C(=O)Oc1ccccc1C(F)(F)F [Example 5, 2-(Trifluoromethyl)phenyl 5-(4-(5-((4-isopropylpiperazin-1-yl)methyl)oxazol-2-yl)-1H-indazol-6-yl)-2-methoxynicotinate] | 7.94 µM | 2 µM | – | 0.00631 µM | 1 µM | – | – | – | – | –
COc1ncc(-c2cc(-c3ncc(CN4CCN(C(C)C)CC4)o3)c3cn[nH]c3c2)cc1C(=O)OCC(F)(F)F [Example 11, 2,2,2-Trifluoroethyl 5-(4-(5-((4-isopropylpiperazin-1-yl)methyl)oxazol-2-yl)-1H-indazol-6-yl)-2-methoxynicotinate] | 20 µM | > 31.6 µM | – | 0.316 µM | 15.8 µM | – | – | – | – | –
Cc1ccccc1-n1c(Cn2cnc3c(N)ncnc32)nc2cccc(C)c2c1=O [IC87114] | – | – | – | – | – | – | remarkable efficacy | – | – | –
O=c1cc(N2CCOCC2)oc2c(-c3ccccc3)cccc12 [LY294002] | – | – | – | – | – | – | – | 5 to 10 µM | 15 to 20 µM | –
COC[C@H]1OC(=O)c2coc3c2[C@@]1(C)C1=C(C3=O)[C@@H]2CCC(=O)[C@@]2(C)C[C@H]1OC(C)=O [Wortmannin] | – | – | – | – | – | – | – | – | – | 0.001 to 0.01 µM

Further lines, with some results ahead:

IC50 [1] | IC50 [2] | Recovery of enzyme activity after jump dilution [3] | IC50 [4] | IC50 [5] | Covalent modification of PI3Kδ (protein mass spectrometry) [6] | Structure (SMILES) | Efficacy in mouse model of amphetamine-induced psychosis [7] | IC50 [8] | IC50 ([9]; Fruman et al. 1998) | IC50 ([9]; literature)
3.16 µM | 0.2 µM | – | 0.00501 µM | 0.0794 µM | – | COc1ncc(-c2cc(-c3ncc(CN4CCN(C(C)C)CC4)o3)c3cn[nH]c3c2)cc1C(=O)Oc1ccccc1[N+](=O)[O-] [Example 3, 2-Nitrophenyl 5-(4-(5-((4-isopropylpiperazin-1-yl)methyl)oxazol-2-yl)-1H-indazol-6-yl)-2-methoxynicotinate] | – | – | – | –
1.58 µM | 0.0631 µM | – | 0.000631 µM | 0.00631 µM | – | COc1ncc(-c2cc(-c3ncc(CN4CCN(C(C)C)CC4)o3)c3cn[nH]c3c2)cc1C(=O)Oc1ccc([N+](=O)[O-])cc1 [Example 4, 4-Nitrophenyl 5-(4-(5-((4-isopropylpiperazin-1-yl)methyl)oxazol-2-yl)-1H-indazol-6-yl)-2-methoxynicotinate] | – | – | – | –
25.1 µM | 6.31 µM | – | 0.00398 µM | 2 µM | – | COc1ncc(-c2cc(-c3ncc(CN4CCN(C(C)C)CC4)o3)c3cn[nH]c3c2)cc1C(=O)Oc1ccc(C(F)(F)F)cc1 [Example 6, 4-(Trifluoromethyl)phenyl 5-(4-(5-((4-isopropylpiperazin-1-yl)methyl)oxazol-2-yl)-1H-indazol-6-yl)-2-methoxynicotinate] | – | – | – | –
12.6 µM | 3.98 µM | – | 0.00631 µM | 2.51 µM | – | COc1ncc(-c2cc(-c3ncc(CN4CCN(C(C)C)CC4)o3)c3cn[nH]c3c2)cc1C(=O)Oc1ccccc1 [Example 8, Phenyl 5-(4-(5-((4-isopropylpiperazin-1-yl)methyl)oxazol-2-yl)-1H-indazol-6-yl)-2-methoxynicotinate] | – | – | – | –
10 µM | 15.8 µM | – | 0.398 µM | 7.94 µM | – | COc1ncc(-c2cc(-c3ncc(CN4CCN(C(C)C)CC4)o3)c3cn[nH]c3c2)cc1C(=O)Oc1ccc(C)cc1C [Example 9, 2,4-Dimethylphenyl 5-(4-(5-((4-isopropylpiperazin-1-yl)methyl)oxazol-2-yl)-1H-indazol-6-yl)-2-methoxynicotinate] | – | – | – | –
10 µM | 12.6 µM | – | 0.0501 µM | 15.8 µM | – | COc1ccc(OC(=O)c2cc(-c3cc(-c4ncc(CN5CCN(C(C)C)CC5)o4)c4cn[nH]c4c3)cnc2OC)cc1 [Example 10, 4-Methoxyphenyl 5-(4-(5-((4-isopropylpiperazin-1-yl)methyl)oxazol-2-yl)-1H-indazol-6-yl)-2-methoxynicotinate] | – | – | – | –
